Results taken from article PMC12649549, “Sequence Permutation Generated Lysine and Tryptophan-Rich Antimicrobial Peptides with Enhanced Therapeutic Index” (Antibiotics, 2025).
Where two headings read alike, the source gives them in different places.

Legend:
Gram-positive bacteria = test: Geometric mean MIC and therapeutic index, Gram-positive bacteria; format: cell-based; details: Gram-positive bacteria; for GM G+ (geometric mean of the MIC values): MH broth, MIC >50 µg/mL counted as 100 µg/mL; for Therapeutic Index (TI) G+: HC10/GM
Outline: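 Selectivity index derived from human red blood cell HC10 relative to geometric mean MIC. Inoculum was 5 × 10^5 CFU/mL in Müller-Hinton or modified LYM broth, and each experiment was repeated independently three times.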

S. aureus ATCC 33592 = test system: S. aureus ATCC 33592
Outline: (§1)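 Salt and pH tolerance was assessed by determining MICs in LYM medium containing 50–300 mM NaCl, 0.5–2.5 mM MgCl2, or at pH 4.5–6.5, alongside MH broth. The inoculum was 5 × 10^5 CFU/mL.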

[1] = test system: A. baumannii 14B00100 (Acinetobacter sp., BCRC number 14B0100)
Outline: as §1

S. aureus ATCC 33593 = test system: S. aureus ATCC 33593
Outline: as §1

S. aureus ATCC 33591 = test system: S. aureus ATCC 33591
Outline: as §1

[2] = LYM broth, 0 mM NaCl, 16 h, 37 °C
[3] = LYM broth, 50 mM NaCl, 16 h, 37 °C
[4] = LYM broth, 100 mM NaCl, 16 h, 37 °C
[5] = LYM broth, 200 mM (NaCl), 16 h, 37 °C
[6] = LYM broth, 300 mM (NaCl), 16 h, 37 °C
[7] = MH broth, 5 × 10^5 CFU/mL, 16 h, 37 °C, repeated three times

Ac-LKWLAKKKKWRKW-NH2 [Peptide W5K06]
6.25 µg/mL: MIC (S. aureus ATCC 33592; LYM broth, pH 6.5) | MIC [1, 4] | MIC (S. aureus ATCC 33593; LYM broth, pH 5.5) | MIC (S. aureus ATCC 33593; LYM broth, pH 6.5) | MIC (S. aureus ATCC 33591; LYM broth, pH 5.5) | MIC (S. aureus ATCC 33591; LYM broth, pH 6.5)
1.56 µg/mL: MIC ([1]; LYM broth, pH 6.5)
>50 µg/mL: MIC (S. aureus ATCC 33592; [5]) | MIC (S. aureus ATCC 33592; [6]) | MIC (S. aureus ATCC 33592; [7]) | MIC [1, 6] | MIC (S. aureus ATCC 33593; [5]) | MIC (S. aureus ATCC 33593; [6]) | MIC (S. aureus ATCC 33593; [7]) | MIC (S. aureus ATCC 33591; [6]) | MIC (S. aureus ATCC 33591; [7])
1.4: Therapeutic Index (TI) G+ (Gram-positive bacteria)
3.13 µg/mL: MIC [1, 2] | MIC ([1]; LYM broth, 0.5 mM MgCl2) | MIC ([1]; LYM broth, 1.5 mM MgCl2) | MIC ([1]; LYM broth, 2.5 mM MgCl2) | MIC [1, 3] | MIC ([1]; LYM broth, pH 4.5) | MIC ([1]; LYM broth, pH 5.5)
50 µg/mL: MIC (S. aureus ATCC 33592; [4]) | MIC [1, 7] | MIC (S. aureus ATCC 33593; [4]) | MIC (S. aureus ATCC 33591; [4]) | MIC (S. aureus ATCC 33591; [5])
25 µg/mL: MIC (S. aureus ATCC 33592; LYM broth, 1.5 mM MgCl2) | MIC (S. aureus ATCC 33592; LYM broth, 2.5 mM MgCl2) | MIC (S. aureus ATCC 33592; [3]) | MIC [1, 5] | MIC (S. aureus ATCC 33593; LYM broth, 1.5 mM MgCl2) | MIC (S. aureus ATCC 33593; LYM broth, 2.5 mM MgCl2) | MIC (S. aureus ATCC 33593; [3]) | MIC (S. aureus ATCC 33591; LYM broth, 2.5 mM MgCl2) | MIC (S. aureus ATCC 33591; [3])
12.5 µg/mL: MIC (S. aureus ATCC 33592; [2]) | MIC (S. aureus ATCC 33592; LYM broth, 0.5 mM MgCl2) | MIC (S. aureus ATCC 33592; LYM broth, pH 4.5) | MIC (S. aureus ATCC 33592; LYM broth, pH 5.5) | MIC (S. aureus ATCC 33593; [2]) | MIC (S. aureus ATCC 33593; LYM broth, 0.5 mM MgCl2) | MIC (S. aureus ATCC 33593; LYM broth, pH 4.5) | MIC (S. aureus ATCC 33591; [2]) | MIC (S. aureus ATCC 33591; LYM broth, 0.5 mM MgCl2) | MIC (S. aureus ATCC 33591; LYM broth, 1.5 mM MgCl2) | MIC (S. aureus ATCC 33591; LYM broth, pH 4.5)
75.8 µg/mL: GM G+ (geometric mean of the MIC values) (Gram-positive bacteria)

Ac-RKWLKWLAKKKKW-NH2 [Peptide W5K03]
1.56 µg/mL: MIC [1, 2] | MIC ([1]; LYM broth, pH 4.5) | MIC ([1]; LYM broth, pH 5.5) | MIC ([1]; LYM broth, pH 6.5)
6.25 µg/mL: MIC [1, 5]
50 µg/mL: MIC (S. aureus ATCC 33592; [4]) | MIC (S. aureus ATCC 33593; LYM broth, 2.5 mM MgCl2) | MIC (S. aureus ATCC 33593; [4]) | MIC (S. aureus ATCC 33591; LYM broth, 2.5 mM MgCl2) | MIC (S. aureus ATCC 33591; [3]) | MIC (S. aureus ATCC 33591; [4])
25 µg/mL: MIC (S. aureus ATCC 33592; [2]) | MIC (S. aureus ATCC 33592; LYM broth, 0.5 mM MgCl2) | MIC (S. aureus ATCC 33592; LYM broth, 1.5 mM MgCl2) | MIC (S. aureus ATCC 33592; LYM broth, 2.5 mM MgCl2) | MIC (S. aureus ATCC 33592; [3]) | MIC (S. aureus ATCC 33592; LYM broth, pH 4.5) | MIC (S. aureus ATCC 33593; [2]) | MIC (S. aureus ATCC 33593; LYM broth, 0.5 mM MgCl2) | MIC (S. aureus ATCC 33593; LYM broth, 1.5 mM MgCl2) | MIC (S. aureus ATCC 33593; [3]) | MIC (S. aureus ATCC 33593; LYM broth, pH 4.5) | MIC (S. aureus ATCC 33593; LYM broth, pH 5.5) | MIC (S. aureus ATCC 33591; [2]) | MIC (S. aureus ATCC 33591; LYM broth, 0.5 mM MgCl2) | MIC (S. aureus ATCC 33591; LYM broth, 1.5 mM MgCl2) | MIC (S. aureus ATCC 33591; LYM broth, pH 4.5) | MIC (S. aureus ATCC 33591; LYM broth, pH 5.5)
12.5 µg/mL: MIC (S. aureus ATCC 33592; LYM broth, pH 5.5) | MIC (S. aureus ATCC 33592; LYM broth, pH 6.5) | MIC [1, 6] | MIC [1, 7] | MIC (S. aureus ATCC 33593; LYM broth, pH 6.5) | MIC (S. aureus ATCC 33591; LYM broth, pH 6.5)
>50 µg/mL: MIC (S. aureus ATCC 33592; [5]) | MIC (S. aureus ATCC 33592; [6]) | MIC (S. aureus ATCC 33592; [7]) | MIC (S. aureus ATCC 33593; [5]) | MIC (S. aureus ATCC 33593; [6]) | MIC (S. aureus ATCC 33593; [7]) | MIC (S. aureus ATCC 33591; [5]) | MIC (S. aureus ATCC 33591; [6]) | MIC (S. aureus ATCC 33591; [7])
66.0 µg/mL: GM G+ (geometric mean of the MIC values) (Gram-positive bacteria)
3.13 µg/mL: MIC ([1]; LYM broth, 0.5 mM MgCl2) | MIC ([1]; LYM broth, 1.5 mM MgCl2) | MIC ([1]; LYM broth, 2.5 mM MgCl2) | MIC [1, 3] | MIC [1, 4]
1.6: Therapeutic Index (TI) G+ (Gram-positive bacteria)
